Assay results taken from patent US20230122344A1, “ANTAGONISTS OF THE MUSCARINIC ACETYLCHOLINE RECEPTOR M4” (Vanderbilt University, priority 2019, published 2023).

Biological target: T1, Human M4 (Homo sapiens, UniProt P08173)
T1 construct: expressed in transfected cells; host or cells: CHO-K1 (ATCC), co-transfected with chimeric G protein Gqi5
T1 sequence (P08173 1-479): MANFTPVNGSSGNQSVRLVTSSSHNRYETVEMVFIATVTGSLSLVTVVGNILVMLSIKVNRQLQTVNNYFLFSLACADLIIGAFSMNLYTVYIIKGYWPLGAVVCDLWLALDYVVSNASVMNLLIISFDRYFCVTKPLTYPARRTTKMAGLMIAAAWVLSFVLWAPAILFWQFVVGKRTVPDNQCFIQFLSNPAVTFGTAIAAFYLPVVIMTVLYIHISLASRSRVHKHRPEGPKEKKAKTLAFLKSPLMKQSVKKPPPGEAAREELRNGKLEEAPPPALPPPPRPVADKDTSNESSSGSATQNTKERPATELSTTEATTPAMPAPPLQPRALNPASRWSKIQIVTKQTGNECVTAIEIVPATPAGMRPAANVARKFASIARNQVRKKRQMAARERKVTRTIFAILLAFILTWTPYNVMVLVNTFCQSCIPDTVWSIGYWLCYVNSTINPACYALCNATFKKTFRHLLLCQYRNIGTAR
Assay: mAChR M4 cell-based functional assay (calcium flux, antagonism of EC80 acetylcholine response)
Settings: M4/Gqi5/CHO-K1 cells; for remaining activity at 30 µM: CHO-K1, % ACh maximum at 30 μM, read-out: Human M4 Emin; for IC50: decrease of response elicited by EC80 acetylcholine
Outline: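 CHO-K1 cells stably expressing human or rat M4 with Gqi5, Fluo-4 loaded; calcium measured by fluorescence ratio on FDSS. Compound added, then EC20 acetylcholine at 143 s and EC80 at 268 s; IC50 from decrease of EC80 response, four-parameter logistic fit.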

SMILES	remaining activity at 30 µM [%]	IC50 [nM]
Cn1cc2cc(-c3cc(C(F)F)c(N[C@H]4C[C@@H]5CN(CC6CCOCC6)C[C@@H]5C4)nn3)ccc2n1 [compound 83, (3aR,5s,6aS)-N-(4-(difluoromethyl)-6-(2-methyl-2H-indazol-5-yl)pyridazin-3-yl)-2-((tetrahydro-2H-pyran-4-yl)methyl)octahydrocyclopenta[c]pyrrol-5-amine]	5	2.3
Cc1c(-c2cc(C(F)F)c(N[C@H]3C[C@@H]4CN(CC5CCOCC5)C[C@@H]4C3)nn2)ccc2nn(C)cc12 [compound 84, (3aR,5s,6aS)-N-(4-(difluoromethyl)-6-(2,4-dimethyl-2H-indazol-5-yl)pyridazin-3-yl)-2-((tetrahydro-2H-pyran-4-yl)methyl)octahydrocyclopenta[c]pyrrol-5-amine]	3	0.89
FC(F)c1cc(-c2ccccc2OC(F)(F)F)nnc1N[C@H]1C[C@@H]2CN(CC3CCOCC3)C[C@@H]2C1 [compound 86, (3aR,5s,6aS)-N-(4-(difluoromethyl)-6-(2-(trifluoromethoxy)phenyl)pyridazin-3-yl)-2-((tetrahydro-2H-pyran-4-yl)methyl)octahydrocyclopenta[c]pyrrol-5-amine]	5	19
[2H]C([2H])(C1CCOCC1)N1C[C@H]2C[C@H](Nc3nnc(-c4cc(F)cc(F)c4F)cc3C(F)F)C[C@H]2C1 [compound 88, (3aR,5s,6aS)-N-(4-(difluoromethyl)-6-(2,3,5-trifluorophenyl)pyridazin-3-yl)-2-((tetrahydro-2H-pyran-4-yl)methyl-d2)octahydrocyclopenta[c]pyrrol-5-amine]	3	10

Further lines, results first:

remaining activity at 30 µM [%]	IC50 [nM]	SMILES
4	49	Cc1ccc(C(F)(F)F)cc1-c1cc(C(F)F)c(N[C@H]2C[C@@H]3CN(CC4CCOCC4)C[C@@H]3C2)nn1 [compound 82, (3aR,5s,6aS)-N-(4-(difluoromethyl)-6-(2-methyl-5-(trifluoromethyl)phenyl)pyridazin-3-yl)-2-((tetrahydro-2H-pyran-4-yl)methyl)octahydrocyclopenta[c]pyrrol-5-amine]
4	11	COc1ccc(F)cc1-c1cc(C(F)F)c(N[C@H]2C[C@@H]3CN(CC4CCOCC4)C[C@@H]3C2)nn1 [compound 85, (3aR,5s,6aS)-N-(4-(difluoromethyl)-6-(5-fluoro-2-methoxyphenyl)pyridazin-3-yl)-2-((tetrahydro-2H-pyran-4-yl)methyl)octahydrocyclopenta[c]pyrrol-5-amine]
3	4.9	Fc1ccc(C(F)(F)F)c(-c2cc(C(F)F)c(N[C@H]3C[C@@H]4CN(CC5CCOCC5)C[C@@H]4C3)nn2)c1 [compound 87, (3aR,5s,6aS)-N-(4-(difluoromethyl)-6-(5-fluoro-2-(trifluoromethyl)phenyl)pyridazin-3-yl)-2-((tetrahydro-2H-pyran-4-yl)methyl)octahydrocyclopenta[c]pyrrol-5-amine]
